This is an account of results in US9434743B2, “Indazole derivatives” (TAKEDA PHARMACEUTICAL COMPANY LIMITED, priority 2012, dated 2016).

In general, IC50 refers to the concentration that gives 50% inhibition. The low end stands for inhibition by little substance, the high end for a need for much substance.

The target of assay [1] is T1, human MetAP2 enzyme (Homo sapiens, UniProt P50579). Put plainly: MetAP2 enzyme assay, enzyme complexed with manganese ions. Conditions: MetAP2 Mn pIC50, MetAP2 enzyme complexed with manganese ions; Met-AMC substrate at Km.
T1 sequence (P50579 whole entry): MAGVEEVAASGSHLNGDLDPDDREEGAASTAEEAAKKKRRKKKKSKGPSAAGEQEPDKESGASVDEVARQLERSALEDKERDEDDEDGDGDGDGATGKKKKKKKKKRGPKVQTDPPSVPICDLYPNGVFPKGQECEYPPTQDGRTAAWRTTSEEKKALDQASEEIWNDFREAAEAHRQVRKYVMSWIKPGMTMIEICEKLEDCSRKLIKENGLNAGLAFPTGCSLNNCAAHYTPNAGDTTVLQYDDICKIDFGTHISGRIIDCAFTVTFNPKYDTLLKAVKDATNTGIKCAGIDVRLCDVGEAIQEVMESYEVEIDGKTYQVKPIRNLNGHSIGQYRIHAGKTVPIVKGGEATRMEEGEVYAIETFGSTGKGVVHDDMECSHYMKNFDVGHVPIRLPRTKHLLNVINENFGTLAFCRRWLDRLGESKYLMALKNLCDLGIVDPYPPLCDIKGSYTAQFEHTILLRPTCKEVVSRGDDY
For assay [2], the target named is T1, human MetAP2 enzyme. Put plainly: MetAP2 enzyme assay, enzyme complexed with cobalt ions. Particulars: MetAP2 Co pIC50, MetAP2 enzyme complexed with cobalt ions; Met-AMC substrate at Km.

Consider `CN1CCN(C(=O)c2cc(-c3cc(C(F)(F)F)cc4[nH]ncc34)cnc2F)CC1` [Example 289, (2-fluoro-5-(6-(trifluoromethyl)-1H-indazol-4-yl)pyridin-3-yl)(4-methylpiperazin-1-yl)methanone], for which the values for the IC50 on human MetAP2 enzyme [1] and against human MetAP2 enzyme [2] were 6.31 nM and 100 nM, respectively.

On to `FC(F)(F)c1cc(-c2cccc(N3CCOCC3)c2)c2cn[nH]c2c1` [Example 57, 4-(3-(6-(trifluoromethyl)-1H-indazol-4-yl)phenyl)morpholine], for which the results for the IC50 against human MetAP2 enzyme [1] and at human MetAP2 enzyme [2] were 25.1 nM and 63.1 nM, respectively.

As to `Cc1nn(CC(=O)NCCO)c(C)c1-c1cc(C(F)(F)F)cc2[nH]ncc12` [Example 386, 2-(3,5-dimethyl-4-(6-(trifluoromethyl)-1H-indazol-4-yl)-1H-pyrazol-1-yl)-N-(2-hydroxyethyl)acetamide], the IC50 at human MetAP2 enzyme [1] is 12.6 nM; against human MetAP2 enzyme [2], 63.1 nM.

As for `Cn1cc(-c2cc(C(F)(F)F)cc3[nH]ncc23)ccc1=O` [Example 373, 1-methyl-5-(6-(trifluoromethyl)-1H-indazol-4-yl)pyridin-2(1H)-one], the IC50 is 6.31 nM on human MetAP2 enzyme [1] and 126 nM against human MetAP2 enzyme [2].

`FC(F)(F)c1cc(-c2cccc3cc[nH]c23)c2cn[nH]c2c1` [Example 76, 4-(1H-indol-7-yl)-6-(trifluoromethyl)-1H-indazole]: the IC50 against human MetAP2 enzyme [1] is 39.8 nM; against human MetAP2 enzyme [2], 398 nM.

As for `O=C(NCCO)c1cncc(-c2cc(C(F)(F)F)cc3[nH]ncc23)c1` [Example 290, N-(2-hydroxyethyl)-5-(6-(trifluoromethyl)-1H-indazol-4-yl)nicotinamide], the IC50 is 7.94 nM against human MetAP2 enzyme [1] and 251 nM against human MetAP2 enzyme [2].

For the compound `Cc1nn(C[C@@H]2CCC(=O)N2)c(C)c1-c1cc(C(F)(F)F)cc2[nH]ncc12` [Example 364, (5S)-5-((3,5-dimethyl-4-(6-(trifluoromethyl)-1H-indazol-4-yl)-1H-pyrazol-1-yl)methyl)pyrrolidin-2-one], the IC50 against human MetAP2 enzyme [1] was 20 nM; against human MetAP2 enzyme [2] it was 79.4 nM.

Turning to `Cn1ccc2c(-c3cc(C(F)(F)F)cc4[nH]ncc34)cccc21` [Example 77, 4-(1-methyl-1H-indol-4-yl)-6-(trifluoromethyl)-1H-indazole], the IC50 was 6.31 nM against human MetAP2 enzyme [1] and 79.4 nM at human MetAP2 enzyme [2].

In the case of `CS(=O)(=O)c1ccccc1-c1cc(C(F)(F)F)cc2[nH]ncc12` [Example 365, 4-(2-(methylsulfonyl)phenyl)-6-(trifluoromethyl)-1H-indazole], the IC50 was 79.4 nM on human MetAP2 enzyme [1] and 1580 nM at human MetAP2 enzyme [2].

As for `O=S(=O)(NCCO)c1ccc(-c2cc(C(F)(F)F)cc3[nH]ncc23)cc1` [Example 224, N-(2-hydroxyethyl)-4-(6-(trifluoromethyl)-1H-indazol-4-yl)benzenesulfonamide], the results for the IC50 against human MetAP2 enzyme [1] and against human MetAP2 enzyme [2] were 2.51 nM and 39.8 nM, respectively.

On to `Cc1nc(N2CCN(C)CC2)ccc1-c1cc(C(F)(F)F)cc2[nH]ncc12` [Example 400, 4-(2-methyl-6-(4-methylpiperazin-1-yl)pyridin-3-yl)-6-(trifluoromethyl)-1H-indazole], for which the values for the 50% inhibitory concentration (IC50) on human MetAP2 enzyme [1] and against human MetAP2 enzyme [2] were 7.94 nM and 12.6 nM, respectively.

As for `Cn1cc(-c2cc(C(F)(F)F)cc3[nH]ncc23)c(=O)n(CCN2CCOCC2)c1=O` [Example 313, 1-methyl-3-(2-morpholinoethyl)-5-(6-(trifluoromethyl)-1H-indazol-4-yl)pyrimidine-2,4(1H,3H)-dione], the IC50 on human MetAP2 enzyme [1] is 25.1 nM; against human MetAP2 enzyme [2], 1580 nM.

On to `COC(=O)c1ccc(OC)c(-c2cc(C(F)(F)F)cc3[nH]ncc23)c1` [Example 263, methyl 4-methoxy-3-(6-(trifluoromethyl)-1H-indazol-4-yl)benzoate], for which the results for the half-maximal inhibitory concentration (IC50) on human MetAP2 enzyme [1] and against human MetAP2 enzyme [2] were 15.8 nM and 20 nM, respectively.

Turning to `FC(F)(F)c1cc(-c2cccc3c2OCO3)c2cn[nH]c2c1` [Example 27, 4-(benzo[d][1,3]dioxol-4-yl)-6-(trifluoromethyl)-1H-indazole], the 50% inhibitory concentration (IC50) against human MetAP2 enzyme [1] is 15.8 nM; on human MetAP2 enzyme [2] it was 126 nM.

For the compound `Cc1nc(NS(C)(=O)=O)ccc1-c1cc(C(F)(F)F)cc2[nH]ncc12` [Example 257, N-(6-methyl-5-(6-(trifluoromethyl)-1H-indazol-4-yl)pyridin-2-yl)methanesulfonamide], the half-maximal inhibitory concentration (IC50) was 7.94 nM against human MetAP2 enzyme [1] and 50.1 nM against human MetAP2 enzyme [2].

As for `CN(C)S(=O)(=O)c1cccc(-c2cc(C(F)(F)F)cc3[nH]ncc23)c1` [Example 108, N,N-dimethyl-3-(6-(trifluoromethyl)-1H-indazol-4-yl)benzenesulfonamide], the 50% inhibitory concentration (IC50) against human MetAP2 enzyme [1] is 12.6 nM; against human MetAP2 enzyme [2], 79.4 nM.

For `FC(F)(F)c1cc(-c2cnn(Cc3ccncc3)c2)c2cn[nH]c2c1` [Example 43, 4-(1-(pyridin-4-ylmethyl)-1H-pyrazol-4-yl)-6-(trifluoromethyl)-1H-indazole], the IC50 is 6.31 nM at human MetAP2 enzyme [1] and 79.4 nM against human MetAP2 enzyme [2].

`Cc1c(-c2cc(C(F)(F)F)cc3[nH]ncc23)ccc(=O)n1C` [Example 402, 1,6-dimethyl-5-(6-(trifluoromethyl)-1H-indazol-4-yl)pyridin-2(1H)-one]: the 50% inhibitory concentration (IC50) against human MetAP2 enzyme [1] was 3.16 nM; against human MetAP2 enzyme [2] it was 39.8 nM.

For the compound `N#Cc1ccc(CO)c(-c2cc(C(F)(F)F)cc3[nH]ncc23)c1` [Example 140, 4-(hydroxymethyl)-3-(6-(trifluoromethyl)-1H-indazol-4-yl)benzonitrile], the IC50 is 3.98 nM at human MetAP2 enzyme [1] and 31.6 nM against human MetAP2 enzyme [2].

As for `FC(F)(F)c1cc(-c2cn[nH]c2)c2cn[nH]c2c1` [Example 23, 4-(1H-pyrazol-4-yl)-6-(trifluoromethyl)-1H-indazole], the half-maximal inhibitory concentration (IC50) on human MetAP2 enzyme [1] is 6.31 nM; against human MetAP2 enzyme [2], 100 nM.

Regarding `COc1ccc(C(=O)N2CCOCC2)cc1-c1cc(C(F)(F)F)cc2[nH]ncc12` [Example 267, (4-methoxy-3-(6-(trifluoromethyl)-1H-indazol-4-yl)phenyl)(morpholino)methanone], the half-maximal inhibitory concentration (IC50) was 10 nM on human MetAP2 enzyme [1] and 39.8 nM at human MetAP2 enzyme [2].

Regarding `Cc1nc(N2CCOCC2)ccc1-c1cc(C(F)(F)F)cc2[nH]ncc12` [Example 399, 4-(6-methyl-5-(6-(trifluoromethyl)-1H-indazol-4-yl)pyridin-2-yl)morpholine], the results for the IC50 against human MetAP2 enzyme [1] and against human MetAP2 enzyme [2] were 7.94 nM and 25.1 nM, respectively.

Turning to `CN(C)C(=O)c1cccc(-c2cc(C(F)(F)F)cc3[nH]ncc23)c1` [Example 121, N,N-dimethyl-3-(6-(trifluoromethyl)-1H-indazol-4-yl)benzamide], the IC50 at human MetAP2 enzyme [1] was 6.31 nM; against human MetAP2 enzyme [2], 63.1 nM.

For the compound `N#CCNC(=O)c1c[nH]c(=O)c(-c2cc(C(F)(F)F)cc3[nH]ncc23)c1` [Example 333, N-(cyanomethyl)-6-oxo-5-(6-(trifluoromethyl)-1H-indazol-4-yl)-1,6-dihydropyridine-3-carboxamide], the figures for the half-inhibitory concentration (IC50) at human MetAP2 enzyme [1] and against human MetAP2 enzyme [2] were 12.6 nM and 251 nM, respectively.

For the compound `C[C@H](CO)Nc1ncc(-c2cc(C(F)(F)F)cc3[nH]ncc23)cn1` [Example 206, (R)-2-(5-(6-(trifluoromethyl)-1H-indazol-4-yl)pyrimidin-2-ylamino)propan-1-ol], the results for the 50% inhibitory concentration (IC50) on human MetAP2 enzyme [1] and against human MetAP2 enzyme [2] were 7.94 nM and 79.4 nM, respectively.

Regarding `OCc1ccc(Cl)c(-c2cc(C(F)(F)F)cc3[nH]ncc23)c1` [Example 128, (4-chloro-3-(6-(trifluoromethyl)-1H-indazol-4-yl)phenyl)methanol], the concentration for half-maximal inhibition (IC50) at human MetAP2 enzyme [1] is 12.6 nM; against human MetAP2 enzyme [2], 39.8 nM.

Turning to `COc1ccc(-c2cc(C(F)(F)F)cc3[nH]ncc23)c2cccnc12` [Example 113, 8-methoxy-5-(6-(trifluoromethyl)-1H-indazol-4-yl)quinoline], the half-maximal inhibitory concentration (IC50) at human MetAP2 enzyme [1] was 7.94 nM; on human MetAP2 enzyme [2], 20 nM.

Regarding `NC(=O)c1ncc(-c2cc(C(F)(F)F)cc3[nH]ncc23)cn1` [Example 295, 5-(6-(trifluoromethyl)-1H-indazol-4-yl)pyrimidine-2-carboxamide], the half-inhibitory concentration (IC50) at human MetAP2 enzyme [1] is 6.31 nM; on human MetAP2 enzyme [2], 200 nM.

Regarding `COc1ccc(C(=O)N2CC(O)C2)cc1-c1cc(C(F)(F)F)cc2[nH]ncc12` [Example 328, (3-hydroxyazetidin-1-yl)(4-methoxy-3-(6-(trifluoromethyl)-1H-indazol-4-yl)phenyl)methanone], the concentration for half-maximal inhibition (IC50) at human MetAP2 enzyme [1] and against human MetAP2 enzyme [2] was 12.6 nM in each case.

In the case of `Cn1ncc2ccc(-c3cc(C(F)(F)F)cc4[nH]ncc34)cc21` [Example 24, 1′-methyl-6-(trifluoromethyl)-1H,1′H-4,6′-biindazole], the half-inhibitory concentration (IC50) against human MetAP2 enzyme [1] is 12.6 nM; against human MetAP2 enzyme [2], 31.6 nM.

For `Cc1nn(C(F)F)c(C)c1-c1cc(C(F)(F)F)cc2[nH]ncc12` [Example 348, 4-(1-(difluoromethyl)-3,5-dimethyl-1H-pyrazol-4-yl)-6-(trifluoromethyl)-1H-indazole], the half-inhibitory concentration (IC50) was 12.6 nM at human MetAP2 enzyme [1] and 79.4 nM against human MetAP2 enzyme [2].

`NS(=O)(=O)c1ccc(-c2cc(C(F)(F)F)cc3[nH]ncc23)cc1F` [Example 344, 2-fluoro-4-(6-(trifluoromethyl)-1H-indazol-4-yl)benzenesulfonamide]: the IC50 against human MetAP2 enzyme [1] is 6.31 nM; against human MetAP2 enzyme [2], 100 nM.

`Nc1nc(Cl)ncc1-c1cc(C(F)(F)F)cc2[nH]ncc12` [Example 191, 2-chloro-5-(6-(trifluoromethyl)-1H-indazol-4-yl)pyrimidin-4-amine]: the IC50 at human MetAP2 enzyme [1] was 25.1 nM; on human MetAP2 enzyme [2], 794 nM.

Regarding `CCn1ncc(-c2cc(C(F)(F)F)cc3[nH]ncc23)c1C` [Example 175, 4-(1-ethyl-5-methyl-1H-pyrazol-4-yl)-6-(trifluoromethyl)-1H-indazole], the IC50 on human MetAP2 enzyme [1] was 10 nM; at human MetAP2 enzyme [2], 39.8 nM.

For `FC(F)(F)c1cc(-c2cnc3[nH]ccc3n2)c2cn[nH]c2c1` [Example 240, 2-(6-(trifluoromethyl)-1H-indazol-4-yl)-5H-pyrrolo[2,3-b]pyrazine], the figures for the IC50 at human MetAP2 enzyme [1] and on human MetAP2 enzyme [2] were 5.01 nM and 158 nM, respectively.

As to `Cc1nn(CC(=O)NCCO)cc1-c1cc(C(F)(F)F)cc2[nH]ncc12` [Example 279, N-(2-hydroxyethyl)-2-(3-methyl-4-(6-(trifluoromethyl)-1H-indazol-4-yl)-1H-pyrazol-1-yl)acetamide], the IC50 against human MetAP2 enzyme [1] is 5.01 nM; against human MetAP2 enzyme [2] it was 50.1 nM.
